Assay results taken from the NIST ThermoML archive (doi:10.1021/je800622e).
± gives the expanded uncertainty stated by the source.

Test: mn = molality of the nth substance listed, in mol/kg
Conditions: 298.15 K, 101 kPa, Liquid; for molar conductivity: Alternating current cell with electrodes; for mass density: Pycnometric method

Compound | molar conductivity (m1 = 0.05) [S·m2/mol] | molar conductivity (m1 = 0.1) [S·m2/mol] | molar conductivity (m1 = 0.15) [S·m2/mol] | molar conductivity (m1 = 0.25) [S·m2/mol] | molar conductivity (m1 = 0.5) [S·m2/mol] | molar conductivity (m1 = 0.75) [S·m2/mol] | molar conductivity (m1 = 1) [S·m2/mol] | mass density (m1 = 0.05) [kg/m3] | mass density (m1 = 0.1) [kg/m3] | mass density (m1 = 0.15) [kg/m3] | mass density (m1 = 0.25) [kg/m3] | mass density (m1 = 0.5) [kg/m3] | mass density (m1 = 0.75) [kg/m3] | mass density (m1 = 1) [kg/m3] | mass density (m1 = 0.02) [kg/m3] | mass density (m1 = 0.06) [kg/m3] | mass density (m1 = 0.2) [kg/m3]
CCCCn1cc[n+](C)c1.F[B-](F)(F)F [1-butyl-3-methylimidazolium tetrafluoroborate] + O | 0.00906 ± 0.00054 | 0.0085 ± 0.00051 | 0.008 ± 0.00048 | 0.00714 ± 0.00043 | 0.00547 ± 0.00033 | 0.00419 ± 0.00025 | 0.00389 ± 0.00023 | 999 ± 0.89 | 1000.85 ± 0.89 | 1002.63 ± 0.9 | 1006.1 ± 0.9 | 1014.2 ± 0.91 | 1021.57 ± 0.91 | 1028.25 ± 0.92 |  |  | 
OC[C@H]1O[C@@](CO)(O[C@H]2O[C@H](CO)[C@@H](O)[C@H](O)[C@H]2O)[C@@H](O)[C@@H]1O [D-sucrose] + O |  |  |  |  |  |  |  |  | 1009.9 ± 0.89 | 1016.06 ± 0.9 | 1027.95 ± 0.91 |  |  |  | 999.72 ± 0.88 | 1004.87 ± 0.89 | 1022.12 ± 0.91
